How the values were obtained:
Format in all cases: cell-based, human
[1] = system: HA-polyubiquitylated proteins; experiment: UV-induced degradation of HA-polyubiquitylated proteins (anti-HA Western blot); settings: MG132 1 nm or 3-MA 10 nm for 18 h, UV 25 mJ/m2
Description: Immunoblotting Analysis of HA-ubiquitin conjugated proteins in cells exposed to UV radiation. Cells ([…]) were transfected with a hemagglutinin (HA)-ubiquitin plasmid using the PolyFect transfection reagent (Qiagen; Valencia, CA) as described (24). Twenty-four h after transfection, cells were treated with either proteasome inhibitor MG132 (1 μM) (Boston Biochemicals; Cambridge, MA) or autophagy inhibitor Bafilomycin A1 (Bafl) (1 nM) (Sigma-Aldrich) or 3-Methyladenine (3-MA) (100 nM) for 18 h. Cells were exposed to UV radiation (25 mJoules, using BioRad GS Gene Linker™ UV Chamber) and/or left untreated. Cells were then allowed to recover in the presence of inhibitors for 3 hr. Cell lysis, SDS-PAGE, and immunoblotting analysis to detect HA-ubiquitin conjugated proteins using anti-HA antibodies was carried out as described herein.
Decrease in the steady state levels of polyubiquitylated proteins could be due to their increased deubiquitylation or increased degradation via the 26S proteasome. Also, the ubiquitin antibody used in the experiment herein is known to cross-react with free ISG15/UCRP (44), and ISG15 protein is elevated in A-T cells (20). An HA-ubiquitin construct was transfected and then the steady state levels of the HA-polyubiquitylated proteins was assessed (to rule out the possibility of protein polyubiquitylation versus protein polyISGlyation), in the absence or presence of the proteasome inhibitor MG132 (to rule out the possibility of protein deubiquitylation versus protein degradation), in UV treated A-T and ATM+ cells. In FIG. 8B, A-T and ATM+ cells were transfected with a HA-ubiquitin construct. Cells were then treated with MG132 (1 μM) or Bafl (1 nM) for 18 hours and exposed to UV radiation (25 mJ/m2). After recovery in the presence of inhibitors for an additional three hours, cells were lysed. Cell extracts were analyzed by Western blotting for HA-polyubiquitylated proteins and actin using anti-HA and anti-actin antibodies respectively. Intensity of the total HA-polyubiquitylated proteins was quantitated using BioRad Quantity One software and results shown in FIG. 8C.
To complement the results shown in FIG. 8B, another construct was used that expresses HA-ubiquitin and that can preferentially make polyubiquitin chains linked through Lys48 on the substrates (20). In FIG. 8D, A-T and ATM+ cells were transfected with HA-Lys48 only ubiquitin construct. The inhibitor and UV treatments, cell lysis, SDS-PAGE, and immunoblotting analysis to detect HA-ubiquitin conjugated proteins using anti-HA antibodies was carried out as described herein. The experiment was repeated two times with the reproducible results. Similar results were obtained using this distinct HA-ubiquitin construct (FIG. 8D) as obtained herein (FIG. 8B); UV induced MG132- and Bafilomycin-resistant degradation of HA-Lys48-linked polyubiquitylated proteins in A-T cells, but not in ATM+ cells.
For FIG. 14A, HA-ubiquitin-transfected A-T/LV-control shRNA cells were exposed to UV (25 mJ/m2). After three hours of recovery, assessment of HA-polyubiquitylated proteins was carried out as described herein for FIG. 8B. In FIG. 14B, HA-ubiquitin-transfected A-T/LV-control shRNA cells were treated with Bafl (1 nm for 18 h). Cells were then exposed to UV (25 mJ/m2). After three hours of recovery in the presence of the inhibitor, assessment of HA-polyubiquitylated proteins was carried out as described for FIG. 14A. For FIG. 14C, HA-ubiquitin-transfected A-T/LV-control shRNA cells were treated with MG132 (1 nm for 18 h). Cells were then exposed to UV (25 mJ/m2). After three hours of recovery in the presence of the inhibitor, assessment of HA-polyubiquitylated proteins was carried out as described for FIG. 14A. For FIG. 14D, HA-ubiquitin-transfected A-T/LV-control shRNA cells were treated with 3-MA (10 nm for 18 h). Cells were then exposed to UV (25 mJ/m2). […]

[2] = system: autophagosomes and autophagolysosomes; experiment: Cyt-ID and LysoTracker Red staining of autophagosomes, lysosomes and autophagolysosomes
Description: Autophagasome, lysosome and autophagolysosomes staining. Cells (100,000/point) were cultured on fibronectin-coated glass coverslips. Cells were treated with autophagy inhibitor Bafl (1 nM) (Sigma-Aldrich) for 18 hr. Cells were then exposed to UV radiation and allowed to recover in the presence of inhibitors for 3 h. Cells were then washed (2×1 min) with PBS and co-stained with Cyt-ID® (Cyt-ID® Autophagy Detection Kit from Enzo Lifesciences; Farmingdale, NY) and Lyso Tracker® Red DND-99 (Invitrogen) for 30 min at 37° C. in a CO2 incubator following manufacturer's protocol. Stained cells were then washed (2×1 min) with PBS and fixed with 4% paraformaldehyde for 20 min at room temperature. After washing with PBS (3×10 min), cells were mounted on slides in anti-fade mounting medium with DAPI (Invitrogen). Images were taken using a 63× oil immersion objective with a Leica DMRA2 upright microscope run through SlideBook software (Intelligent Imaging Innovations).
Autophagic flux was also monitored using Cyto-ID® and LysoTrack Red dyes. A-T and ATM+ cells were treated with Bafl (1 nM for 18 h) and then exposed to UV (25 mJ/m2) as indicated. Three hours after recovery in the presence of inhibitors, cells were co-stained with Cyt-ID® and LysoTracker Red® dyes. Fluorescence images of Cyt-ID® and LysoTracker Red® stained cells were made (Color images not shown). Green (autophagosomes; from Cyt-TD®-stained panels), red (lysosomes; from LysoTracker Red-stained panels), and yellow (autophagolysosomes; from merged panels) dots in A-T and ATM+ cells were counted manually using the ImageJ plug-in Cell Counter. Mean number of dots/cell is shown in FIGS. 11A and 11B, respectively. In FIGS. 11A and 11B, the number of autophagosomes (green dots) is represented by stippled bars; the number of lysosomes (red dots) is presented by lined bar; and the number of autophagolysosomes (yellow dots) is represented by clear (white) bars.
Bafilomycin inhibits autophagy at a late stage (47). Whether 3-methyl adenine (3-MA), an autophagy inhibitor known to inhibit autophagy at early stage by inhibiting formation of autophagosomes (56), could block UV-induced autophagic flux was tested in A-T/LV-control shRNA cells. Using Cyto-ID® and LysoTrack Red dyes as described herein in FIGS. 9A, 9B, 11A and 11B, the same criteria were used to judge autophagic activity in immunofluorescence analysis as described for FIGS. 11A and 11B.
The effect of 3-MA on UV-induced autophagic flux was tested in A-T/LV-ISG15 shRNA cells. A-T/LV-ISG15 shRNA cells were either left untreated or treated with 3-MA (10 nM for 18 h), and cells were then exposed to UV (25 mJ/m2). Three hours after recovery in the presence of the inhibitor, cells were co-stained with Cyt-ID® and LysoTracker Red® dyes. Fluorescence images of Cyt-ID® and LysoTracker Red® stained cells were made.

[3] = system: polyubiquitylated proteins; experiment: CHX chase of polyubiquitylated proteins in FT169A cells; settings: FT169A (ATM+) cells
Description: To test whether the defective ubiquitin-mediated degradation of cellular proteins contributes to neurodegeneration in A-T, the rate of degradation of overall cellular polyubiquitylated proteins was monitored in FT169A (A-T) (ATM null) and FT169A (ATM+) (ATM reconstituted FT169A) isogenic cells as described (71) using the protein synthesis inhibitor cycloheximide (CHX) (Sigma-Aldrich). In FIG. 1A, FT169A (A-T) (lanes 1-4) and FT169A (ATM+) (lanes 5-8) cells were treated with the protein synthesis inhibitor CHX (10 μg/ml) for 0, 1, 3, and 6 hours. Cell lysates were analyzed using discontinuous (15%) SDS-PAGE followed by immunoblotting with anti-ubiquitin antibody. The symbols * and ** mark the position of high-molecular-weight (HMW) polyubiquitylated proteins. Quantitation of the high-molecular-weight (HMW) polyubiquitylated proteins (shown as **) is shown in the bar graph.
The ubiquitin sequence contains seven lysine residues (at positions 6, 11, 27, 29, 33, 48, and 63) and polyubiquitin chain assembly can occur at any of these lysine residues (74). Lys48-linked polyubiquitylated proteins are targeted for destruction via the 26S proteasome (74). […] The amount of polyubiquitylated proteins and the rate of turnover of polyubiquitylated proteins (see the HMW protein species marked by *) were determined under the same conditions as in FIG. 1B using the anti-HA antibody in immunoblotting. […]

Mfn2 = Mfn2 modification and degradation in A-T/LV shRNA cells treated with mitochondrial depolarizing agents; settings: ISG15 overexpressing A-T cells, 24 hr
Description: Immunoblotting Analysis of Mitochondrial Proteins—Mitochondria were isolated from A-T/LV control and ISG15 shRNA cells using the Miochondrial Isolation Kit (Thermo Scientific Company, 89874). The Dounce homogenization protocol described by the manufacturer was used to isolate mitochondria from cells. Mitochondrial pellets were resuspended in lysis buffer containing 50 mM Tris pH 7.5 and 4% (v/v) SDS. Samples were homogenized and boiled for 10 min. Lysates containing equal protein were then mixed with 6× Laemmli SDS sample buffer (3× final concentration). Samples were boiled again and mitochondrial proteins were analyzed by SDS-PAGE. Immunoblotting analyses using either anti-ISG15 (raised against human ISG15) (20), anti-ubiquitin (gift from Dr. Arthur Haas, at LSUHSC—New Orleans), or anti-mitofusin 2 (Abcam, ab88569) antibodies were carried out using the ECL Western procedure (Pierce, 34076) and the BioRad VersaDoc Imaging System (BioRad). Immunoblotting Analysis of HA Polyubiquitylated Proteins in Cells: Cells were transfected with HA-ubiquitin using the PolyFect transfection reagent (Qiagen, 301105). Twenty four hours after transfection, mitochondria were isolated as described above. Mitochondrial lysis, SDS-PAGE, and immunoblotting analysis to detect HA-ubiquitin conjugated proteins using anti-HA antibodies were carried out as described above. Immunoblotting Analysis of Mfn2 in Cells: Cells were lysed in lysis buffer containing 50 mM Tris-HCl, pH 7.5, 2% SDS, and protease inhibitor cocktail. Lysates were sonicated, boiled, and cleared by centrifugation. Lysates containing equal protein were then mixed with 6× Laemmli SDS sample buffer (3× final concentration). Samples were boiled again and proteins were separated by 15% SDS-PAGE. Immunoblotting analysis was carried out using anti-Mfn2 antibodies (Abcam) as described above. Intensity of the Mfn2 bands was quantitated using BioRad Quantity One software. Statistical analysis—Statistical analysis was carried out using GraphPad software.
Many outer mitochondrial membrane (OMM) proteins are ubiquitylated and degraded via the 26S proteasome prior to mitophagy in cells treated with the mitochondrial depolarizing agents (28,29). To test whether ISG15 inhibits polyubiquitylation of OMM proteins, we assessed the fate of Mfn2, an OMM protein and proteasome substrate, in A-T/LV-control and A-T/LV-ISG15-silenced cells treated with two different mitochondrial depolarizing agents, valinomycin and carbonylcyanide m-chlorophenylhydrazone (CCCP). Consistent with the literature reports (29,35,36), we observed a ladder of high molecular weight anti-Mfn2 cross-reactive bands above the 86 kDa Mfn2 protein band that is reminiscent of polyubiquitylation, in both ISG15-silenced and ISG15 overexpressing A-T cells (FIGS. 34 A and B, left panels). The endogenous level of these high molecular weight Mfn2 cross-reactive bands was remarkably higher in ISG15-silenced as compared to the ISG15-overexpressing A-T cells in the absence of any drugs (FIGS. 34A and B, first panels, compare lanes 1 and 4). […] In contrast, the level of these Mfn2 cross-reactive high molecular weight bands decreased under the same drug treatment conditions in ISG15-silenced A-T cells (FIGS. 34A and B, first panels, lanes 4-6, and the accompanying bar graph in the second panel for quantitation). […] The bar graphs in FIGS. 34A and B, third panels, show mean values of the ratio between free Mfn2 (86 kDa band) and actin proteins (±SEM) in CCCP-treated A-T/LV-control and ISG15 shRNA cells measured from eight independent experiments, and valinomycin-treated A-T/LV-control and ISG15 shRNA cells measured from three independent experiments respectively.

For `Cn1cnc(N)c2ncnc1-2` [3-MA, 3-Methyladenine], the “UV-induced degradation of HA-polyubiquitylated proteins” value ([1]; A-T/LV-ISG15 shRNA (ISG15-silenced) cells) was “induced degradation”, the “UV-induced degradation of HA-polyubiquitylated proteins” value ([1]; A-T/LV-control shRNA cells) was “markedly blocked” and the “yellow mean dots/cell (autophagolysosomes)” value ([2]; 3-MA-treated A-T/LV-control shRNA cells, untreated 3.8) was 0.5 dots/cell. For the same compound, the “green mean dots/cell (autophagosomes)” value ([2]; 3-MA-treated A-T/LV-control shRNA cells, untreated 4.6) was 0.16 dots/cell, the autophagic activity ([2]; A-T/LV-ISG15 shRNA cells, 3-MA 10 nM 18 h, UV 25 mJ/m2) was “No apparent change” and the “green dots and yellow dots” value ([2]; A-T/LV-control shRNA cells co-treated with 3-MA and UV) was “remained unaltered”.
In the case of `C[C@@H]1C[C@@H]([C@H](O)CC2CC(=O)NC(=O)C2)C(=O)[C@@H](C)C1` [CHX, cycloheximide], the “level of polyubiquitylated proteins reduced” value ([3]; CHX 10 μg/ml, within 6 hours) is reported as “more than 30%” and the “cellular pool of Lys48-linked polyubiquitylated proteins reduced” value ([3]; CHX, within 3 hours) is reported as “more than 70%”.
For `CC(C)[C@@H]1NC(=O)[C@H](C)OC(=O)[C@@H](C(C)C)NC(=O)[C@@H](C(C)C)OC(=O)[C@H](C(C)C)NC(=O)[C@H](C)OC(=O)[C@@H](C(C)C)NC(=O)[C@@H](C(C)C)OC(=O)[C@H](C(C)C)NC(=O)[C@H](C)OC(=O)[C@@H](C(C)C)NC(=O)[C@@H](C(C)C)OC1=O` [valinomycin], the “free Mfn2 protein level” value (Mfn2) was “slightly increased”.
